# Test results taken from patent US20120183976A1, “METHODS OF ASSESSING ACTIVITY OF A POLYSACCHARIDE COMPOSITION” (priority 2009, published 2012).
# Test system: C170HM2 human colorectal tumor cells
# Test: C170HM2 colon cancer metastasis to the liver model
# Assay type: in vivo, MF1 nude (nu/nu) athymic mice
# Conditions: 25 mg/kg i.v. cycled on days 1, 3, 5, 7
# Description: Liver metastasis was initiated by intraperitoneal injection of C170HM2 human colorectal tumor cells into male MF1 nude (nu/nu) athymic mice. 5FU/leucovorin was used as a positive control.
# C170HM2 cells were maintained in vitro in RPMI culture medium (Sigma) containing 10% (v/v) heat inactivated fetal bovine serum and 2 mM L-glutamine at 37° C. in 5% CO2 and humidified conditions. Cells from sub-confluent monolayers were harvested with 0.025% EDTA, washed in culture medium and re-suspended in sterile phosphate buffered saline, pH 7.4 (PBS) for in vivo administration. 1.5×10^6 cells in a volume of 1 ml were injected intraperitoneally into 65 mice, and the mice were allocated into treatment groups as below.
# Group 1: n=10 Vehicle control Group 2: n=10 25 mg/kg 5FU/leucovorin i.v. cycled on days 1, 3, 5, 7 Group 3: n=10 5 mg/kg compound 1 (Dalteparin) s.c. once daily Group 4: n=10 5 mg/kg compound 2 (M402) s.c. once daily Group 5: n=10 15 mg/kg compound 2 s.c. once daily Group 6: n=10 30 mg/kg compound 2 s.c. once daily Group 7: n=5 Untreated
# Treatment was initiated on day 1 following cell injection and continued until day 35 or until the clinical condition of the animal required termination. Groups 5 and 6 missed one dose on day 5. […]
# The study was terminated on day 35, and the tumors in the liver were excised and weighed. The numbers of lung nodules are also counted.
substance,measurement,setting,value
5FU/leucovorin,Mean tumor area,day 35,13.12 mm^2
same,Mean tumor weight,liver tumors day 35,0.037 g
